Measurements: patent US20250041439A1, “ANTIBODY-DRUG CONJUGATES” (SPIREA LIMITED, priority 2021, published 2025)
Read-outs that look alike come from different tables or passages of the source. Non-standard residues stand in square brackets, D forms with d. Residues, ends and D or L forms follow the SMILES beside them. *: point of attachment. Dolaproine = CO[C@@H]([C@@H]1CCCN1)[C@@H](C)C(=O)O; Dil = CC[C@H](C)[C@H](NC)[C@@H](CC(=O)O)OC; X1 = C[C@@H](N*)[C@@H](O)c1ccccc1; NMeV = CN[C@H](C(=O)O)C(C)C

Experiments:
[1] = system: NCI-N87 human gastric cancer CDX model; format: in vivo; conditions: 3 mg/kg IV single dose, PG-D42
Method: The objective of this study was to evaluate the in vivo anti-tumour efficacy of the MMAE ADC of Example 3 in the subcutaneous NCI-N87 human gastric cancer CDX model in female BALB/c Nude mice.
• Species: Mus musculus • Strain: BALB/c Nude • Age: 6-8 weeks • Sex: female • Body weight: 18-22 g
The NCI-N87 tumor cells (ATCC, Manassas, VA, cat #CRL-5822) were maintained in vitro as a monolayer culture in RPMI-1640 medium supplemented with 10% fetal bovine serum, 1% Antibiotic-Antimycotic, at 37° C. in an atmosphere of 5% CO2 in air. The tumour cells were routinely subcultured twice weekly by trypsin-EDTA treatment. The cells growing in an exponential growth phase were harvested and counted for tumour inoculation.
Each mouse for efficacy study was inoculated subcutaneously at the right flank with NCI-N87 tumour cells (10×10^6) in 0.2 mL of PBS supplemented with Matrigel (1:1) for tumour development. Treatments were started on day 6 after tumour inoculation when the average tumour size reached approximately 198 mm^3. […]
All the procedures related to animal handling, care and the treatment in the study were performed according to the guidelines approved by the Institutional Animal Care and Use Committee (IACUC) of the CRO following the guidance of the Association for Assessment and Accreditation of Laboratory Animal Care (AAALAC). At the time of routine monitoring, the animals were daily checked for any effects of tumour growth and treatments on normal behaviour such as mobility, food and water consumption (by looking only), body weight gain/loss (body weights were measured twice weekly), eye/hair matting and any other abnormal effect as stated in the protocol. Death and observed clinical signs were recorded on the basis of the numbers of animals within each subset.
The major endpoint was to see if the tumour growth could be delayed or mice could be cured. Tumour size was measured twice weekly in two dimensions using a calliper, and the volume was expressed in mm^3 using the formula: V=0.5a×b^2 where a and b are the long and short diameters of the tumour, respectively. […]

[2] = system: JIMT-1 (Her2 Low, human breast carcinoma); assay: CellTiter-Glo luminescence viability assay with MMAE ADC; format: cell-based; conditions: JIMT-1 cells, 96 hours, n = 3; read-out: IC50 (anti-proliferative effect)
Method: (§1) The CellTiter-Glo© luminescence viability assay was used to measure the inhibitory effect of the MMAE ADC prepared in Example 3 on cell growth.
(§2) Her2^High SK-BR-3 (human breast adenocarcinoma, ATCC® HTB-30, Manassas, VA, United States) were cultured in McCoy's 5A medium supplemented with 200 U/mL penicillin, 200 μg/mL streptomycin and 20% heat-inactivated fetal bovine serum. Her2^Low JIMT-1 (human breast carcinoma, ACC589, DSMZ, Braunschweig, Germany) were cultured in DMEM GlutaMax® medium supplemented with 200 U/mL penicillin, 200 μg/mL streptomycin and 10% heat-inactivated fetal bovine serum. Her2^Negative NCI-H520 (human lung squamous cell carcinoma, ATCC®-HTB-182) were cultured in RPMI medium supplemented with 200 U/mL penicillin, 200 μg/mL streptomycin and 10% heat-inactivated fetal bovine serum.
(§3) SK-BR-3, JIMT-1 and NCI-H520 cells were seeded in 96-well plates at a density of 5×10^3, 2×10^3 and 2.5×10^3 cells in 100 μL growth medium, respectively, and incubated for 24 hours at 37° C./5% CO2.
(§4) After 96 hours in the presence of ADCs or controls, viability was detected using the CellTiter-Glo® luminescence assay. Assay plates were equilibrated at room temperature for 20 minutes before addition of 100 μL CellTiter-Glo® reagent per well. The plates were then mixed for 3 minutes at 300 rpm to assist cell lysis and incubated for a further 20 minutes at room temperature to stabilise the luminescence signal. Luminescence was recorded using a SpectraMax i3x plate reader with a default integration time of 0.5 s/well.

[3] = system: NCI-H520 (Her2 Negative, human lung squamous cell carcinoma); assay: as above; format: cell-based; conditions: NCI-H520 cells, 96 hours, n = 3; read-out: IC50 (anti-proliferative effect)
Method: as §1, §2, §3, §4

[4] = system: SK-BR-3 (Her2 High, human breast adenocarcinoma); assay: as above; format: cell-based; conditions: SK-BR-3 cells, 96 hours, n = 3; read-out: IC50 (anti-proliferative effect)
Method: as §1, §2, §3, §4

[5] = system: SK-BR-3 cells (HER2 High, human breast adenocarcinoma); assay: CellTiter-Glo luminescence viability assay with SN-38 ADCs; format: cell-based; conditions: n = 3, read-out: SK-BR-3 IC50 Mean (±St. Dev.)
Method: The plates were then mixed for 3 minutes at 300 rpm to assist cell lysis and incubated for a further 20 minutes at room temperature to stabilise the luminescence signal.

Q: How did the T/C [1] turn out when T-DM1 was run?
A: Its T/C is 29.37%.

Q: And the TGI [1]?
A: The TGI was 78.58%.

Q: And the mean tumour volume [1]?
A: Its mean tumour volume is 574 mm^3.

Q: Which results are given for `CC[C@H](C)[C@@H]([C@@H](CC(=O)N1CCC[C@H]1[C@H](OC)[C@@H](C)C(=O)N[C@H](C)[C@@H](O)c1ccccc1)OC)N(C)C(=O)[C@@H](NC(=O)[C@@H](NC)C(C)C)C(C)C` [MMAE, monomethyl auristatin E] (H-[NMeV]V[Dil][Dolaproine]-X1)?
A: IC50 [2]: 0.126 ± 0.053 nM; IC50 [3]: 0.334 ± 0.114 nM; IC50 [4]: 0.284 ± 0.138 nM

Q: With `CCc1c2c(nc3ccc(O)cc13)-c1cc3c(c(=O)n1C2)COC(=O)[C@]3(O)CC` [SN-38] as the molecule, how does the IC50 ([5]; 9 h exposure (limited), then further 96 hours) read?
A: Its IC50 is 5.78 ± 2.01 nM.

Q: And the IC50 ([5]; 96 h exposure (continuous))?
A: The IC50 was 1.17 ± 0.09 nM.
